Laboratory results reported in article PMC8778264 (Nanomaterials, 2022).

Tests used:
Assay type in all cases: cell-based
[1] = tested on: CRL-1739 cells; experiment: Cellular uptake and cell apoptosis analysis by flow cytometry (Annexin V-FITC / propidium iodide); conditions: 0.05 and 2 mg/mL, 24 h
Protocol: (§1) The control group comprised untreated cells and fresh culture medium without test compounds. CRL-1739 cells were seeded to a 5 × 10^4 cell density in 24-well plates. […] After the administration of formulations, cells were washed with PBS three times. The cells were trypsinized and suspended in fresh PBS with 10% fetal bovine serum.
The suspended formulations were incubated with 5 μL of Annexin V-FITC and 5 μL of propidium iodide for 15 min at room temperature in the dark. The cell suspensions were analyzed by using Guava easy Cyte in terms of cellular uptake.

[2] = tested on: CRL-1739 cells; experiment: Fluorescence microscopy (Hoechst 33342)
Protocol: as §1
After treatment with the formulations, CRL-1739 cells were fixed and stained with Hoechst 33342 (blue). The cellular uptake of formulations was performed with a Nikon eclipse fluorescence microscope (Nikon, Japan) at a magnification of 1000×. The stained cell nuclei were evaluated.

[3] = tested on: CRL-1739 cells; experiment: In vitro cytotoxicity (MTT assay); conditions: 48 h treatment
Protocol: The cell line was cultured in DMEM supported with 10% fetal bovine serum, 0.5 mg/mL glutamine/penicillin streptomycin at 37 °C and 5% CO2. […] Ninety-six well flat-bottom plates and […] DMEM were used for the seeding procedure. […] Then, 100 μL of MTT solution (5 mg/mL) was put into each well and incubated at 37 °C. The culture medium was removed. Then, 200 μL of dimethysulfoxide was added to obtain the dissolution of the MTT formazan crystals. The absorbance was read at 570 nm using a microplate reader.

Cc1ccc(NC(=O)c2ccc(CN3CCN(C)CC3)cc2)cc1Nc1nccc(-c2cccnc2)n1 [IMT, Imatinib] was tested, and the “cellular uptake (fluorescence intensity, flow cytometry)” value [1] was “lower fluorescence intensity than cells administered with F16 and F16-IMT”, the “IMT location and distribution inside cells (fluorescence)” value [2] was “low fluorescence when compared to F16 and F16-IMT” and the cell viability [3] was 70.5%.
